Laboratory results taken from US9220672B2, “Peptide for use in the treatment of skin conditions” (ORGANOBALANCE GMBH, priority 2011, dated 2015).

Experiments:
Assay type in all cases: cell-based
[1] = test system: S. epidermidis; experiment: S. epidermidis growth stimulation, in-vitro hole plate assay on tellurite-TSA; settings: 40 μl of 1 mg/ml solution per well, 35° C., 24 h, vs water control
Description: To this effect, an S. epidermidis growth simulation assay was employed, using potassium tellurite as the growth indicator, observed in the assay as brown zones. An S. epidermidis log phase culture at 1:200 (containing approximately 1×10^7 cfu/ml of bacteria) was used as the working culture in the experiment.
The working culture was plated onto tellurite-TSA, after which 5 mm diameter holes were respectively punched into the agar for forming the testing wells. 40 μl of a solution containing the tetrapeptide at a concentration of 1 mg/ml were then added to a first and second well, and the same volume of water was added as the control to a third well. The Petri dish was then incubated at 35° C. for 24 h.

[2] = test system: S. epidermidis; experiment: S. epidermidis in vitro liquid assay (microtiter plate, OD600nm); settings: SCD-bouillon (1:2), pH 6.5, vs control devoid of additive
Description: A Microtiter plate having wells with a respective volume of 200 μl was used for the S. epidermidis in vitro liquid assay. To this effect, a 24 h cell culture of S. epidermidis was diluted 1:200 thus affording an optical density OD600nm of 0.06 in SCD-bouillon (1:2). The samples used in the experiment further contained the inventive tetrapeptide H-Lys(H-Asp-NH2)-Ala-Glu-NH2 in respective concentrations of 1 mg/ml and 0.2 mg/ml. As control assay, samples containing 1 mg/ml of a mixture containing Alanine, Glutamine, Lysine, and Asparagine in equal parts and samples containing no further components in addition to S. epidermidis were respectively employed. The pH of all of the samples was 6.5.

[3] = test system: S. aureus; experiment: S. aureus in vitro liquid assay (microtiter plate, OD600nm); settings: 1 mg/ml, SCD-bouillon (1:2), pH 6.5, vs control devoid of additive
Description: An S. aureus in vitro liquid assay was performed on a Microtiter plate having wells with a respective volume of 200 μl. To this effect, a 24 h cell culture of S. aureus was diluted 1:500 thus affording an optical density OD600nm of 0.05 in SCD-bouillon (1:2). One of the samples used in the experiment further contained the inventive tetrapeptide H-Lys(H-Asp-NH2)-Ala-Glu-NH2 in a concentration of 1 mg/ml. The pH of the samples was 6.5.

CC(NC(=O)C(N)CCCCNC(=O)CC(N)C(N)=O)C(=O)NC(CCC(=O)O)C(N)=O (stereo not drawn) [H-Lys(H-Asp-NH2)-Ala-Glu-NH2]
growth of S. epidermidis (tellurite growth indicator zone around well) [1]: able to stimulate the growth
growth of S. epidermidis (tellurite growth indicator zone around well) ([1]; listed as inventive tetrapeptide): clearly stimulated
growth of S. epidermidis (optical density OD600nm over incubation time) ([2]; 0.2 mg/ml): stimulation is already apparent
growth of S. epidermidis (optical density OD600nm over incubation time) ([2]; 1 mg/ml): clearly stimulates the growth
growth of S. aureus (optical density OD600nm over incubation time) [3]: clearly inhibited
